# Measurements as given in patent US7927600B2, “Anti-allergic pharmaceutical composition containing at least one allergen and at least one antihistamine compound” (priority 2001, dated 2011).
# Test system: allergic patients
# Assay: Example 4: adverse effects
# Format: in vivo, human
# Settings: patients of Example 4
smiles,measurement,value
"CCOc1c(N)c2c(c(OCC)c1OCC)C(C1c3c(cc4c(c3OC)OCO4)CCN1C)OC2=O (stereo not shown) [Hypostamine, tritoqualine]","Adverse Effects, Conclusion (frequency)",Very rare
